# Results published in patent publication US20150087673A1, “METHODS FOR USING AND BIOMARKERS FOR AMPK-ACTIVATING COMPOUNDS” (RIGEL PHARMACEUTICALS, INC., priority 2013, published 2015).
# System: AMPK
# Assay: AMPK activation assay (enzyme-linked immunosorbent assay)
# Type: cell-based
# In short: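 Read-out: immunodetected kinase activation after compound exposure, run with commercial kit reagents.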
row,Compound,EC50
1,"N#Cc1ccc(CN2CCC(NC(=O)c3ccc(C(=O)N4CCC(C(=O)c5ccc(N6CCCC6)cc5)CC4)nc3)CC2)cc1 [Compound 377, N-(1-(4-cyanobenzyl)piperidin-4-yl)-6-(4-(4-(pyrrolidin-1-yl)benzoyl)piperidine-1-carbonyl)nicotinamide]",< 500 nM
2,"COc1ccc(OC2CCN(C(=O)c3ccc(C(=O)NC4CCN(Cc5ccc(C#N)cc5)CC4)cn3)CC2)c([N+](=O)[O-])c1 [Compound 378, N-(1-(4-cyanobenzyl)piperidin-4-yl)-6-(4-(4-methoxy-2-nitrophenoxy)piperidine-1-carbonyl)nicotinamide]",< 500 nM
3,"O=C(Nc1ccc(Oc2ccc(F)cc2)nc1)c1ccc(C(=O)N2CCC(C(=O)c3ccc(N4CCOCC4)cc3)CC2)cn1 [Compound 379, N-(6-(4-fluorophenoxy)pyridin-3-yl)-5-(4-(4-morpholinobenzoyl)piperidine-1-carbonyl)picolinamide]",< 500 nM
4,"CN1CCN(c2ccc(C(=O)C3CCN(C(=O)c4ccc(C(=O)NC5CCN(Cc6ccc(C#N)cc6)CC5)nc4)CC3)cc2)CC1 [Compound 380, N-(1-(4-cyanobenzyl)piperidin-4-yl)-5-(4-(4-(4-methylpiperazin-1-yl)benzoyl)piperidine-1-carbonyl)picolinamide]",< 500 nM
5,"O=C(NC1CCN(Cc2ccc(F)cc2)CC1)c1ccc(C(=O)N2CCC(C(=O)c3ccc(N4CCCC4)cc3)CC2)nc1 [Compound 381, N-(1-(4-fluorobenzyl)piperidin-4-yl)-6-(4-(4-(pyrrolidin-1-yl)benzoyl)piperidine-1-carbonyl)nicotinamide]",< 500 nM
6,"O=C(Nc1ccc(Oc2ccc(F)cc2)nc1)c1ccc(C(=O)N2CCC(C(=O)c3ccc(N4CCCC4)cc3)CC2)nc1 [Compound 382, N-(6-(4-fluorophenoxy)pyridin-3-yl)-6-(4-(4-(pyrrolidin-1-yl)benzoyl)piperidine-1-carbonyl)nicotinamide]",< 500 nM
7,"COc1ccc(OC2CCN(C(=O)c3ccc(C(=O)NC4CCN(Cc5ccc(C#N)cc5)CC4)cn3)CC2)c(NC(C)=O)c1 [Compound 383, 6-(4-(2-acetamido-4-methoxyphenoxy)piperidine-1-carbonyl)-N-(1-(4-cyanobenzyl)piperidin-4-yl)nicotinamide]",> 10000 nM
8,"COc1ccc(OC2CCN(C(=O)c3ccc(C(=O)NC4CCN(Cc5ccc(C#N)cc5)CC4)cn3)CC2)c(N)c1 [Compound 384, 6-(4-(2-amino-4-methoxyphenoxy)piperidine-1-carbonyl)-N-(1-(4-cyanobenzyl)piperidin-4-yl)nicotinamide]",500 to 1000 nM
9,"COc1ccc(OC2CCN(C(=O)c3ccc(C(=O)NC4CCN(Cc5ccc(C#N)cc5)CC4)cn3)CC2)c(N(C)C)c1 [Compound 385, N-(1-(4-cyanobenzyl)piperidin-4-yl)-6-(4-(2-(dimethylamino)-4-methoxyphenoxy)piperidine-1-carbonyl)nicotinamide]",> 10000 nM
10,"N#Cc1ccc(CN2CCC(NC(=O)c3ccc(C(=O)NC4CCN(Cc5ccc(C#N)cc5)CC4)nn3)CC2)cc1 [Compound 386, N3,N6-bis(1-(4-cyanobenzyl)piperidin-4-yl)pyridazine-3,6-dicarboxamide]",> 10000 nM
11,"COc1ccc(C(=O)C2CCN(C(=O)c3ccc(C(=O)NC4CCN(Cc5ccc(C#N)cc5)CC4)nn3)CC2)cc1 [Compound 387, N-(1-(4-cyanobenzyl)piperidin-4-yl)-6-(4-(4-methoxybenzoyl)piperidine-1-carbonyl)pyridazine-3-carboxamide]",< 500 nM
12,"N#Cc1ccc(CN2CCC(NC(=O)c3ccc(C(=O)N4CCC(Oc5ccc(C#N)cc5)CC4)nn3)CC2)cc1 [Compound 388, N-(1-(4-cyanobenzyl)piperidin-4-yl)-6-(4-(4-cyanophenoxy)piperidine-1-carbonyl)pyridazine-3-carboxamide]",< 500 nM
13,"COc1ccc(OC2CCN(C(=O)c3ccc(C(=O)NC4CCN(Cc5ccc(C#N)cc5)CC4)cn3)CC2)c(NS(C)(=O)=O)c1 [Compound 389, N-(1-(4-cyanobenzyl)piperidin-4-yl)-6-(4-(4-methoxy-2-(methylsulfonamido)phenoxy)piperidine-1-carbonyl)nicotinamide]",1000 to 5000 nM
14,"CC(=O)c1ccc(OC2CCN(C(=O)c3ccc(C(=O)NC4CCN(Cc5ccc(C#N)cc5)CC4)cn3)CC2)cc1 [Compound 390, 6-(4-(4-acetylphenoxy)piperidine-1-carbonyl)-N-(1-(4-cyanobenzyl)piperidin-4-yl)nicotinamide]",< 500 nM
15,"CC(=O)c1ccc(OC2CCN(C(=O)c3ccc(C(=O)NC4CCN(Cc5ccc(F)cc5)CC4)cn3)CC2)cc1 [Compound 391, 6-(4-(4-acetylphenoxy)piperidine-1-carbonyl)-N-(1-(4-fluorobenzyl)piperidin-4-yl)nicotinamide]",< 500 nM
16,"O=C(NC1CCN(Cc2ccc(F)cc2)CC1)c1ccc(C(=O)N2CCC(C(=O)c3ccc(-n4cccn4)cc3)CC2)nc1 [Compound 392, 6-(4-(4-(1H-pyrazol-1-yl)benzoyl)piperidine-1-carbonyl)-N-(1-(4-fluorobenzyl)piperidin-4-yl)nicotinamide]",< 500 nM
17,"N#Cc1ccc(CN2CCC(NC(=O)c3ccc(C(=O)N4CCC(C(=O)c5ccc(-n6cccn6)cc5)CC4)nc3)CC2)cc1 [Compound 393, 6-(4-(4-(1H-pyrazol-1-yl)benzoyl)piperidine-1-carbonyl)-N-(1-(4-cyanobenzyl)piperidin-4-yl)nicotinamide]",< 500 nM
18,"COc1ccc(OC2CCN(C(=O)c3ccc(C(=O)NC4CCN(Cc5ccc(C#N)cc5)CC4)cn3)CC2)c(NC(=O)CCOCCOCCOCCOCCNC(=O)CCCC[C@@H]2SC[C@@H]3NC(=O)N[C@@H]32)c1 [Compound 394, N-(1-(4-cyanobenzyl)piperidin-4-yl)-6-(4-(4-methoxy-2-(17-oxo-21-((3aS,4S,6aR)-2-oxohexahydro-1H-thieno[3,4-d]imidazol-4-yl)-4,7,10,13-tetraoxa-16-azahenicosanamido)phenoxy)piperidine-1-carbonyl)nicotinamide]",> 10000 nM
19,"CC(=O)c1ccc(OC2CCN(C(=O)c3ccc(C(=O)Nc4ccc(Oc5ccc(F)cc5)nc4)cn3)CC2)cc1 [Compound 395, 6-(4-(4-acetylphenoxy)piperidine-1-carbonyl)-N-(6-(4-fluorophenoxy)pyridin-3-yl)nicotinamide]",< 500 nM
20,"CS(=O)(=O)c1ccc(OC2CCN(C(=O)c3ccc(C(=O)NC4CCN(Cc5ccc(F)cc5)CC4)cn3)CC2)cc1 [Compound 396, N-(1-(4-fluorobenzyl)piperidin-4-yl)-6-(4-(4-(methylsulfonyl)phenoxy)piperidine-1-carbonyl)nicotinamide]",1000 to 5000 nM
21,"CS(=O)(=O)c1ccc(OC2CCN(C(=O)c3ccc(C(=O)NC4CCN(Cc5ccc(C#N)cc5)CC4)cn3)CC2)cc1 [Compound 397, N-(1-(4-cyanobenzyl)piperidin-4-yl)-6-(4-(4-(methylsulfonyl)phenoxy)piperidine-1-carbonyl)nicotinamide]",< 500 nM
22,"CS(=O)(=O)c1ccc(OC2CCN(C(=O)c3ccc(C(=O)NC4CCC(Oc5ccc(C#N)cc5)CC4)cn3)CC2)cc1 (stereo not shown) [Compound 398, N-(4-(4-cyanophenoxy)cyclohexyl)-6-(4-(4-(methylsulfonyl)phenoxy)piperidine-1-carbonyl)nicotinamide]",< 500 nM
